# According to patent US7223780B2, “Triazole-derivatives as blood clotting enzyme factor Xa inhibitors” (Sanofi-Aventis Deutschland GmbH, priority 2003, dated 2007):
# Target: T1, human factor Xa (Homo sapiens, UniProt P00742)
# T1 construct: 25 μl human factor Xa (Enzyme Research Laboratories, Inc; South Bend, Ind.); purchased Enzyme Research Laboratories, Inc; South Bend, Ind
# Experiment: Factor Xa chromogenic assay (substrate S-2765)
# Format: biochemical
# Settings: inhibition constant for factor Xa, calculated from IC50 by Ki=IC50/{1+(substrate concentration/Km)}; 0.5 nM enzyme, 140 μM S-2765, 25° C.; read-out: Ki(FXa)
# Procedure: The ability of the compounds of the formula I or II to inhibit factor Xa or factor VIIa or other enzymes like thrombin, plasmin, or trypsin can be assessed by determining the concentration of the compound of the formula I or II that inhibits enzyme activity by 50%, i.e. the IC50 value, which was related to the inhibition constant Ki. Purified enzymes were used in chromogenic assays. The concentration of inhibitor that causes a 50% decrease in the rate of substrate hydrolysis was determined by linear regression after plotting the relative rates of hydrolysis (compared to the uninhibited control) versus the log of the concentration of the compound of formulae I, II, Ia, Ib, Ic, Id, IIa, IIb or IId. For calculating the inhibition constant Ki, the IC50 value was corrected for competition with substrate using the formula Ki=IC50/{1+(substrate concentration/Km)} wherein Km is the Michaelis-Menten constant (Chen and Prusoff, Biochem. Pharmacol. 22 (1973) 3099–3108; I. H. Segal, Enzyme Kinetics, 1975, John Wiley & Sons, New York, 100–125; which were incorporated herein by reference). a) Factor Xa Assay
# In the assay for determining the inhibition of factor Xa activity TBS-PEG buffer (50 mM Tris-HCl, pH 7.8, 200 mM NaCl, 0.05% (w/v) PEG-8000, 0.02% (w/v) NaN3) was used. The IC50 was determined by combining in appropriate wells of a Costar half-area microtiter plate 25 μl human factor Xa (Enzyme Research Laboratories, Inc.; South Bend, Ind.) in TBS-PEG; 40 μl 10% (v/v) DMSO in TBS-PEG (uninhibited control) or various concentrations of the compound to be tested diluted in 10% (v/v) DMSO in TBS-PEG; and substrate S-2765 (N((α)-benzyloxycarbonyl-D-Arg-Gly-L-Arg-p-nitroanilide; Kabi Pharmacia, Inc.; Franklin, Ohio) in TBS-PEG.
# The assay was performed by pre-incubating the compound of formula I or II plus enzyme for 10 min. Then the assay was initiated by adding substrate to obtain a final volume of 100 μl. The initial velocity of chromogenic substrate hydrolysis was measured by the change in absorbance at 405 nm using a Bio-tek Instruments kinetic plate reader (Ceres UV900HDi) at 25° C. during the linear portion of the time course (usually 1.5 min after addition of substrate). The enzyme concentration was 0.5 nM and substrate concentration was 140 μM.
# T1 sequence (P00742 235-488 limits assumed): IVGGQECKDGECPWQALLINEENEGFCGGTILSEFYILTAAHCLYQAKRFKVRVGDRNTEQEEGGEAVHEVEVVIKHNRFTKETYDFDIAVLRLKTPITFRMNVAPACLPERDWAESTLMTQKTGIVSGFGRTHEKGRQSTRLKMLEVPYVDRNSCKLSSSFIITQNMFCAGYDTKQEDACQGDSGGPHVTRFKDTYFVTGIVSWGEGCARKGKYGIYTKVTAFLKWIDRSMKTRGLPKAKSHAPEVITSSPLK
# T1 sequence (P00742 41-179 partner limits assumed): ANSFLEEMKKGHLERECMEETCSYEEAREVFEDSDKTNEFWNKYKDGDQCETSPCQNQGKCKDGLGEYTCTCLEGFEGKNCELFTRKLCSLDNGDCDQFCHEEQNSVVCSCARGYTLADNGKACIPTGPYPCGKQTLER
row,SMILES,Ki [nM]
1,"CC(C)N1CCC(NC(=O)c2nc(-n3cccc3)n(Cc3cc(-c4ccc(Cl)s4)on3)n2)CC1 [Example 1, 1-[5-(5-Chloro-thiophen-2-yl)-isoxazol-3-ylmethyl]-5-pyrrol-1-yl-1H-[1,2,4]triazole-3-carboxylic acid (1-isopropyl-piperidin-4-yl)-amide]",54
2,"CC(C)N1CCC(NC(=O)c2nc(-c3ccccn3)n(Cc3cc(-c4ccc(Cl)s4)on3)n2)CC1 [Example 2, 1-[5-(5-Chloro-thiophen-2-yl)-isoxazol-3-ylmethyl]-5-pyridin-2-yl-1H-[1,2,4]triazole-3-carboxylic acid (1-isopropyl-piperidin-4-yl)-amide]",80
3,"CC(C)N1CCC(NC(=O)c2nc(-c3ccccn3)nn2Cc2cc(-c3ccc(Cl)s3)on2)CC1 [Example 3, 2-[5-(5-Chloro-thiophen-2-yl)-isoxazol-3-ylmethyl]-5-pyridin-2-yl-2H-[1,2,4]triazole-3-carboxylic acid (1-isopropyl-piperidin-4-yl)-amide]",100
4,"CC(C)N1CCC(NC(=O)c2nnn(Cc3cc(-c4ccc(Cl)s4)on3)n2)CC1 [Example 5, 2-[5-(5-Chloro-thiophen-2-yl)-isoxazol-3-ylmethyl]-2H-tetrazole-5-carboxylic acid (1-isopropyl-piperidin-4-yl)-amide]",330
